One assay has as its system tps1Δ cells. In words: Growth rescue of tps1Δ strain on glucose (growth curves, 2% galactose medium). The following applies: 100 μM compound, 2.5 mM glucose. The class given is cell-based, S. cerevisiae. The essentials: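 Growth at 30 °C was tracked by OD595 readings every 30 min, with at least triplicate technical wells. Cells came from 2% galactose synthetic precultures, were washed and set to OD 0.1, and received compound 10 min ahead of the glucose addition.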

For assay [1], the system named is A549 lung adenocarcinoma cells. In words: A549 cell proliferation / growth inhibition. In kind it is cell-based, human. The note with it: for Selected from primary screen for growth inhibition of A549 cells at 50 μM: 50 μM compound, 1 mM glucose; for Selected for having an IC50 ratio (10 mM glucose: 1 mM glucose) of A549 growth higher than WBC-A: IC50 on 10 mM vs 1 mM glucose, compared with WBC-A. The procedure, abridged: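 A549 growth screened in RPMI with 1 mM glucose, compounds at 50 μM; cell number from counts of Hoechst-stained nuclei after 3 days. Growth curves also followed by IncuCyte phase-contrast confluency over 3–5 days (1000–1500 cells/well), DMSO ≤0.1%, ≥4 technical repeats.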

Each structure is given as a SMILES string.

On to `Cc1nc(SCC(=O)Nc2ccccc2C#N)c2c(-c3cccs3)csc2n1` [19B], for which the “Rescue of the tps1Δ strain on 2.5 mM glucose at 100 μM” value (shortened to “Rescue of the tps1Δ strain”) in the assay with tps1Δ cells is listed as “No”. Further, the “Selected from primary screen for growth inhibition of A549 cells at 50 μM” value in assay [1] is “No”.

Take `COCc1nc(Sc2nnc(CN)n2C)c2c(-c3ccccc3)csc2n1` [40A]: the “Rescue of the tps1Δ strain” value with tps1Δ cells is recorded as “No”. For the same molecule, in assay [1], the “Selected from primary screen for growth inhibition of A549 cells at 50 μM” value was “No”.

On to `COCCCNC(=O)CSc1nc(C)nc2scc(-c3cccs3)c12` [15B], for which the “Rescue of the tps1Δ strain” value in the assay with tps1Δ cells is recorded as “Yes”. Also, in assay [1], the “Selected from primary screen for growth inhibition of A549 cells at 50 μM” value was “No”.

As for `Cc1nc(SCCN2CCOCC2)c2cc(-c3ccccc3)sc2n1` [41C], the “Rescue of the tps1Δ strain” value in the assay on tps1Δ cells is recorded as “No”. In assay [1], the “Selected from primary screen for growth inhibition of A549 cells at 50 μM” value is on record as “Yes” and the “Selected for having an IC50 ratio (10 mM glucose: 1 mM glucose) of A549 growth higher than WBC-A” value (“Selected for having an IC50 ratio” below) is reported as “Lower IC50 ratio”.

Turning to `Cc1nc(Sc2nnc(C)[nH]2)c2c(-c3ccccc3)csc2n1` [13A], in the assay with tps1Δ cells, the “Rescue of the tps1Δ strain” value is “No”. Also, the “Selected from primary screen for growth inhibition of A549 cells at 50 μM” value in assay [1] is reported as “No”.

Regarding `Cc1nc(SCC(=O)N(C)CCC#N)c2c(-c3cccs3)csc2n1` [7B], the “Rescue of the tps1Δ strain” value in the assay on tps1Δ cells is “Yes”. Also, the “Selected from primary screen for growth inhibition of A549 cells at 50 μM” value in assay [1] is “No”.

`Cc1sc2nc(-c3cccs3)nc(Sc3nnc(C)n3C)c2c1C` [16A]: the “Rescue of the tps1Δ strain” value with tps1Δ cells is “No”. Moreover, in assay [1], the “Selected from primary screen for growth inhibition of A549 cells at 50 μM” value is recorded as “No”.

Consider `CCn1c(Sc2nc(C)nc3scc(-c4cccs4)c23)nnc1-c1ccco1` [38C], for which, in the assay on tps1Δ cells, the “Rescue of the tps1Δ strain” value was “No”. For the same molecule, the “Selected from primary screen for growth inhibition of A549 cells at 50 μM” value in assay [1] was “No”.

In the case of `Cc1nc(SCC(N)=O)c2c(-c3cccs3)csc2n1` [14A], the “Rescue of the tps1Δ strain” value in the assay with tps1Δ cells is on record as “Yes”. Further, the “Selected from primary screen for growth inhibition of A549 cells at 50 μM” value in assay [1] is “No”.

For the molecule `CC(=O)Nc1ccc(C(=O)CSc2nc(C)nc3scc(-c4cccs4)c23)cc1` [17B], in the assay with tps1Δ cells, the “Rescue of the tps1Δ strain” value was “No”. In assay [1], the “Selected from primary screen for growth inhibition of A549 cells at 50 μM” value is “Yes” and the “Selected for having an IC50 ratio” value is reported as “Higher IC50 ratio, but false-positive”.

Consider `Cc1nc(SCC(=O)Nc2c(Cl)cccc2C(F)(F)F)c2c(-c3cccs3)csc2n1` [19C], for which the “Rescue of the tps1Δ strain” value in the assay with tps1Δ cells is listed as “No”. Besides, the “Selected from primary screen for growth inhibition of A549 cells at 50 μM” value in assay [1] is recorded as “No”.

Take `COC(=O)CSc1nnc(C(C)C)c2cnn(-c3ccc(C)cc3)c12` [76C]: in the assay on tps1Δ cells, the “Rescue of the tps1Δ strain” value was “No”. Besides, in assay [1], the “Selected from primary screen for growth inhibition of A549 cells at 50 μM” value is “Yes” and the “Selected for having an IC50 ratio” value was “Lower IC50 ratio”.

With `Cc1nc(SCC(=O)N(Cc2ccccc2)Cc2ccccc2)c2c(-c3cccs3)csc2n1` [22B], the “Rescue of the tps1Δ strain” value with tps1Δ cells is “No”. In addition, the “Selected from primary screen for growth inhibition of A549 cells at 50 μM” value in assay [1] is reported as “No”.

Regarding `Cc1sc2ncnc(Sc3nnc4ccccn34)c2c1C` [58A], the “Rescue of the tps1Δ strain” value in the assay on tps1Δ cells was “No”. For the same molecule, in assay [1], the “Selected from primary screen for growth inhibition of A549 cells at 50 μM” value was “No”.

With `CCC(c1nnc(Sc2nc(C)nc3scc(-c4cccs4)c23)n1Cc1ccccc1)N(C)C` (centres unmarked) [52A], the “Rescue of the tps1Δ strain” value in the assay with tps1Δ cells is recorded as “No”. In assay [1], the “Selected from primary screen for growth inhibition of A549 cells at 50 μM” value was “Yes” and the “Selected for having an IC50 ratio” value was “Lower IC50 ratio”.

`Cc1nc(SCC(=O)NC(C)(C#N)C2CC2)c2c(-c3cccs3)csc2n1` (centres unmarked) [18B]: in the assay with tps1Δ cells, the “Rescue of the tps1Δ strain” value was “No”. In assay [1], the “Selected from primary screen for growth inhibition of A549 cells at 50 μM” value is “Yes” and the “Selected for having an IC50 ratio” value was “Higher IC50 ratio, but false-positive”.

With `Cc1sc2[nH]c(CSc3nnc(-c4cccs4)n3Cc3ccccc3)nc(=N)c2c1C` [11A], in the assay with tps1Δ cells, the “Rescue of the tps1Δ strain” value was “No”. Also, the “Selected from primary screen for growth inhibition of A549 cells at 50 μM” value in assay [1] is “No”.

Take `Cc1nc(SCC(=O)N2CC(C)OC(C)C2)c2c(C)c(C)sc2n1` (centres unmarked) [7C]: the “Rescue of the tps1Δ strain” value in the assay on tps1Δ cells is recorded as “No”. Further, in assay [1], the “Selected from primary screen for growth inhibition of A549 cells at 50 μM” value was “Yes” and the “Selected for having an IC50 ratio” value is on record as “Higher IC50 ratio, but false-positive”.

For the molecule `Cc1nc(SCC(=O)OC(C)(C)C)c2c3c(sc2n1)CCCC3` [31C], the “Rescue of the tps1Δ strain” value in the assay on tps1Δ cells is reported as “No”. Further, in assay [1], the “Selected from primary screen for growth inhibition of A549 cells at 50 μM” value is on record as “No”.

Take `Cc1nc(Sc2nnc3n2CCCCC3)c2c(-c3cccs3)csc2n1` [A]: in the assay with tps1Δ cells, the “Rescue of the tps1Δ strain” value is “Yes”. Besides, in assay [1], the “Selected from primary screen for growth inhibition of A549 cells at 50 μM” value is on record as “Yes”.

On to `Cc1nc(SCC(=O)NC(N)=O)c2c(-c3cccs3)csc2n1` [6B], for which the “Rescue of the tps1Δ strain” value in the assay on tps1Δ cells is reported as “Yes”. In assay [1], the “Selected from primary screen for growth inhibition of A549 cells at 50 μM” value is listed as “Yes” and the “Selected for having an IC50 ratio” value is reported as “Lower IC50 ratio”.

For `CCCc1nnc(Sc2nc(CN3CCOCC3)nc3scc(-c4cccs4)c23)[nH]1` [62C], the “Rescue of the tps1Δ strain” value in the assay on tps1Δ cells is on record as “No”. Also, in assay [1], the “Selected from primary screen for growth inhibition of A549 cells at 50 μM” value is on record as “Yes” and the “Selected for having an IC50 ratio” value is “Lower IC50 ratio”.

Regarding `COC(=O)CN(C)c1nc(C)nc2scc(-c3ccc(OC)c(OC)c3)c12` [67C], the “Rescue of the tps1Δ strain” value with tps1Δ cells is on record as “No”. Besides, in assay [1], the “Selected from primary screen for growth inhibition of A549 cells at 50 μM” value was “Yes” and the “Selected for having an IC50 ratio” value is “Lower IC50 ratio”.

Consider `CSc1nc(C)nc2scc(-c3cccs3)c12` [45A], for which the “Rescue of the tps1Δ strain” value in the assay with tps1Δ cells is listed as “No”. The “Selected from primary screen for growth inhibition of A549 cells at 50 μM” value in assay [1] is “No”.

Turning to `Cc1nc(Sc2nnc(-c3ccco3)n2C)c2c(-c3cccs3)csc2n1` [25A], the “Rescue of the tps1Δ strain” value in the assay with tps1Δ cells is given as “No”. In addition, the “Selected from primary screen for growth inhibition of A549 cells at 50 μM” value in assay [1] is “No”.

On to `Cc1ccc(-c2csc3ncnc(SCC(=O)N(C)Cc4ccco4)c23)cc1` [20B], for which the “Rescue of the tps1Δ strain” value with tps1Δ cells was “No”. Also, in assay [1], the “Selected from primary screen for growth inhibition of A549 cells at 50 μM” value was “Yes” and the “Selected for having an IC50 ratio” value was “Lower IC50 ratio”.

As for `CCCc1nnc(Sc2nc(C)nc3scc(-c4cccs4)c23)[nH]1` [50C], in the assay on tps1Δ cells, the “Rescue of the tps1Δ strain” value is recorded as “Yes”. Moreover, in assay [1], the “Selected from primary screen for growth inhibition of A549 cells at 50 μM” value was “Yes” and the “Selected for having an IC50 ratio” value is recorded as “Lower IC50 ratio”.

Regarding `OCCSc1ncnc2sc3c(c12)CCC3` [17C], the “Rescue of the tps1Δ strain” value with tps1Δ cells is on record as “No”. Moreover, the “Selected from primary screen for growth inhibition of A549 cells at 50 μM” value in assay [1] is listed as “No”.

For the molecule `Cc1nc(NCC(=O)NCc2ccco2)c2c(-c3ccccc3)csc2n1` [4C], the “Rescue of the tps1Δ strain” value in the assay on tps1Δ cells was “No”. Further, in assay [1], the “Selected from primary screen for growth inhibition of A549 cells at 50 μM” value is “Yes”; the “Selected for having an IC50 ratio” value was “Higher IC50 ratio and confirmed”.

With `O=c1ccnc(Sc2nc(CN3CCOCC3)nc3scc(-c4cccs4)c23)[nH]1` [7A], the “Rescue of the tps1Δ strain” value with tps1Δ cells was “No”. In assay [1], the “Selected from primary screen for growth inhibition of A549 cells at 50 μM” value is on record as “No”.

For `COc1ccccc1-n1ncc2c(C)nnc(SCC(=O)N3CCOCC3)c21` [77C], the “Rescue of the tps1Δ strain” value with tps1Δ cells was “No”. Also, the “Selected from primary screen for growth inhibition of A549 cells at 50 μM” value in assay [1] is reported as “No”.
